Assay results from the supplement of paper PMC13380429.

Key:
Details in all cases: 72 h
Calu-3 [1] = test: drug sensitivity score (DSS) for viability; higher = more toxic; extreme values may be limits of the assay
Vero E6 [2] = test: as above
Caco-2 [3] = test: as above
HepG2 [4] = test: as above
Calu-3 [5] = test: cell viability relative to DMSO; higher = less toxic
Vero E6 [6] = test: as above
Caco-2 [7] = test: as above
HepG2 [8] = test: as above
HepG2 [9] = test: relative viability EC50 (midpoint between 100% and the lowest measured viability); higher = less toxic
U2OS [10] = test: drug sensitivity score (DSS) for viability; higher = more toxic; extreme values may be limits of the assay
U2OS [11] = test: cell viability relative to DMSO; higher = less toxic
Calu-3 [12] = test: relative viability EC50 (midpoint between 100% and the lowest measured viability); higher = less toxic
Caco-2 [13] = test: as above
U2OS [14] = test: as above
Vero E6 [15] = test: as above

SMILES | drug sensitivity score (Calu-3 [1]) | drug sensitivity score (Vero E6 [2]) | drug sensitivity score (Caco-2 [3]) | drug sensitivity score (HepG2 [4]) | cell viability (Calu-3 [5]; 1 nM) [%] | cell viability (Calu-3 [5]; 10 nM) [%] | cell viability (Calu-3 [5]; 100 nM) [%] | cell viability (Calu-3 [5]; 1000 nM) [%] | cell viability (Calu-3 [5]; 10000 nM) [%] | cell viability (Vero E6 [6]; 1 nM) [%] | cell viability (Vero E6 [6]; 10 nM) [%] | cell viability (Vero E6 [6]; 100 nM) [%] | cell viability (Vero E6 [6]; 1000 nM) [%] | cell viability (Vero E6 [6]; 10000 nM) [%] | cell viability (Caco-2 [7]; 1 nM) [%] | cell viability (Caco-2 [7]; 10 nM) [%] | cell viability (Caco-2 [7]; 100 nM) [%] | cell viability (Caco-2 [7]; 1000 nM) [%] | cell viability (Caco-2 [7]; 10000 nM) [%] | cell viability (HepG2 [8]; 1 nM) [%] | cell viability (HepG2 [8]; 10 nM) [%] | cell viability (HepG2 [8]; 100 nM) [%] | cell viability (HepG2 [8]; 1000 nM) [%] | cell viability (HepG2 [8]; 10000 nM) [%] | relative viability EC50 (HepG2 [9]) [µM] | drug sensitivity score (U2OS [10]) | cell viability (U2OS [11]; 1 nM) [%] | cell viability (U2OS [11]; 10 nM) [%] | cell viability (U2OS [11]; 100 nM) [%] | cell viability (U2OS [11]; 1000 nM) [%] | cell viability (U2OS [11]; 10000 nM) [%] | relative viability EC50 (Calu-3 [12]) [µM] | relative viability EC50 (Caco-2 [13]) [µM] | relative viability EC50 (U2OS [14]) [µM] | relative viability EC50 (Vero E6 [15]) [µM]
Cc1c(C(=O)Nc2ccc(N3CCC(N4CCOCC4)CC3)c(C#N)c2)cnn1-c1ccc(Cl)cc1 [Y-320] | 2.2 | 0.8 | 2.4 | 7.6 | 103 | 103 | 90.1 | 89.6 | 69.9 | 104 | 104 | 106 | 104 | 74.6 | 104 | 93.8 | 103 | 87.5 | 74.9 | 106 | 109 | 105 | 77.4 | 23 | 1.42 | – | – | – | – | – | – | – | – | – | –
C#Cc1cncc([C@@H]2CCCN2C)c1 [altinicline] | 0 | – | 0 | 0 | 98.3 | 99 | 93.9 | 102 | 110 | – | – | – | – | – | 101 | 92.9 | 102 | 98.7 | 97.7 | 98.5 | 96.8 | 106 | 105 | 93.5 | > 10 | 0 | 102 | 91.9 | 102 | 97.4 | 98.9 | > 10 | > 10 | > 10 | –
Nc1c(Br)cc(Br)cc1CN[C@H]1CC[C@H](O)CC1 [ambroxol] | 0.2 | – | 0 | 0 | 105 | 101 | 102 | 91.8 | 88.7 | – | – | – | – | – | 100 | 92.8 | 98.5 | 89.4 | 97.5 | 102 | 98.5 | 99.6 | 103 | 87.5 | > 10 | 0 | 103 | 99 | 103 | 101 | 101 | > 10 | > 10 | > 10 | –
C[C@H](c1ccc2ccc(OC3CCC(C(F)(F)F)CC3)c(C(F)(F)F)c2c1)N1C2CCC1CC(C(=O)O)C2 (stereo not given in full) [autotaxin-modulator-1] | 0 | 0 | 0.7 | 1.8 | 114 | 97.6 | 100 | 106 | 96.2 | 99.2 | 103 | 96.4 | 93.8 | 89 | 105 | 91.2 | 96.1 | 96.6 | 83.2 | 90.4 | 91 | 105 | 96 | 71.9 | – | 0.1 | 93.3 | 95.9 | 94.3 | 95.1 | 83.7 | > 10 | > 10 | > 10 | > 10
